As usually defined, the T/C is the ratio of treated to control. For orientation: logP means a log measure of how a compound divides between an organic and an aqueous phase. The low end stands for a more hydrophilic compound, the high end for a more lipophilic compound.

In data set [1] the test system is P388. Nature of the data set: Antitumor activity against mouse P388 cells allografted in mouse assessed as host survival time at 100 mg/kg administered qd for 9 days beginning 24 hrs after tumor implantation relative to control. It is filed as functional.
Data set [2] concerns P388. Nature of the data set: Antitumor activity against mouse P388 cells allografted in mouse assessed as host survival time at 50 mg/kg administered qd for 9 days beginning 24 hrs after tumor implantation relative to control in presence of 8 mg/kg CuCl2. The data set is classed as functional.
The test system of data set [3] is Sarcoma-180. Nature of the data set: Antitumor activity against mouse Sarcoma 180 cells allografted in mouse assessed as host survival time at 100 mg/kg administered qd for 6 days beginning 24 hrs after tumor implantation relative to control. It is filed as functional.
For data set [4], the system named is P388. Nature of the data set: Antitumor activity against mouse P388 cells allografted in mouse assessed as host survival time at 40 mg/kg administered qd for 9 days beginning 24 hrs after tumor implantation relative to control in presence of 8 mg/kg CuCl2. It is filed as functional.
The subject of data set [5] is Sarcoma-180. The data set is described as follows: Antitumor activity against mouse Sarcoma 180 cells allografted in mouse assessed as host survival time at 40 mg/kg administered qd for 6 days beginning 24 hrs after tumor implantation relative to control in presence of 8 mg/kg CuCl2. It is filed as functional.
Data set [6] can be described thus: Metal chelating activity of the compound assessed as Fe2+-complex formation by absorbance analysis. It is filed as physicochemical.
The nature of data set [7]: Metal chelating activity of the compound assessed as Co2+-complex formation by absorbance analysis. It is filed as physicochemical.
The subject of data set [8] is Ehrlich. Nature of the data set: Antitumor activity against mouse Ehrlich ascites carcinoma cells allografted in mouse assessed as host survival time at 40 mg/kg administered qd for 6 days beginning 24 hrs after tumor implantation relative to control in presence of 8 mg/kg CuCl2. The data set is classed as functional.
A short description of data set [9]: Octanol-water partition coefficient, log P of the compound. It is filed as physicochemical.
Data set [10] deals with Ehrlich. Nature of the data set: Antitumor activity against mouse Ehrlich ascites carcinoma cells allografted in mouse assessed as host survival time at 100 mg/kg administered qd for 6 days beginning 24 hrs after tumor implantation relative to control. The data set is classed as functional.
Data set [11] is described as follows: Metal chelating activity of the compound assessed as cupric ion complex formation at drug:cupric chloride ratio of 1:1 by absorbance analysis. The data set is classed as physicochemical.
The test system of data set [12] is Sarcoma-180. The data set is described as follows: Antitumor activity against mouse Sarcoma 180 cells allografted in mouse assessed as host survival time at 50 mg/kg administered qd for 6 days beginning 24 hrs after tumor implantation relative to control in presence of 8 mg/kg CuCl2. The data set is classed as functional.
Data set [13] concerns Ehrlich. Nature of the data set: Antitumor activity against mouse Ehrlich ascites carcinoma cells allografted in mouse assessed as host survival time at 50 mg/kg administered qd for 6 days beginning 24 hrs after tumor implantation relative to control in presence of 8 mg/kg CuCl2. It is filed as functional.
Data set [14] is described as follows: Metal chelating activity of the compound assessed as cupric ion complex formation at drug:cupric chloride ratio of 2:1 by absorbance analysis. The data set is classed as physicochemical.
Data set [15] is described as follows: Metal chelating activity of the compound assessed as cupric ion complex formation by absorbance analysis. It is filed as physicochemical.

The structures appear in SMILES notation.

On to `O=P(N/N=C/c1cccc[n+]1[O-])(Oc1ccccc1)Oc1ccccc1`, for which the T/C in the data set on P388 [1] is reported as 111%; in the data set on P388 [2], 95%.
Turning to `[O-][n+]1ccccc1/C=N/NP(=S)(N/N=C/c1cccc[n+]1[O-])Oc1ccccc1`, the T/C came out at 89% in the data set with Sarcoma-180 [3]; 89% in the data set with P388 [4]; 103% with P388 [1]; 85% in the data set on Sarcoma-180 [5]; 166% with Ehrlich [8]; 123% with Ehrlich [10]. In addition, the Activity entry in data set [6] and in data set [7] was “Not Active” each time. The log partition coefficient (logP) in data set [9] turned out to be 1.28.
For the compound `O.O=P(O)(N/N=C/c1ccccn1)Oc1ccccc1`, the T/C in the data set on Sarcoma-180 [3] is 95%; in the data set on P388 [4], 99%; with P388 [1] it was 103%; with Sarcoma-180 [5] it was 79%; with Ehrlich [8] it was 163%; with Ehrlich [10] it was 115%. Further, the Activity entry is listed as “Not Active” in [6], “Active” in [7] and “Active” in data set [11].
As for `S=P(N/N=C/c1ccccn1)(Oc1ccccc1)Oc1ccccc1`, the T/C in the data set with P388 [4] is given as 94%; in the data set on P388 [1] it was 102%.
`[O-][n+]1ccccc1/C=N/NP(=S)(N/N=C/c1cccc[n+]1[O-])c1ccccc1`: the T/C in the data set on Sarcoma-180 [3] was 79%; in the data set with Sarcoma-180 [12], 106%; in the data set on P388 [1] it was 114%; with P388 [2] it was 87%; in the data set with Ehrlich [10], 104%; in the data set with Ehrlich [13] it was 204%. Moreover, the Activity result in data set [6] and in [7] was “Not Active” each time.
Regarding `O=P(N/N=C/c1ccccn1)(Oc1ccccc1)Oc1ccccc1`, the T/C with P388 [4] is reported as 92%; in the data set on P388 [1], 117%. Also, the result in [14] was Active.
As for `[O-][n+]1ccccc1/C=N/NP(=S)(Oc1ccccc1)Oc1ccccc1`, the T/C in the data set with Sarcoma-180 [3] is listed as 93%; in the data set on P388 [4], 94%; with P388 [1], 113%; in the data set with Sarcoma-180 [5] it was 106%; in the data set with Ehrlich [8], 204%; with Ehrlich [10], 144%. For the same compound, the Activity entry in data set [6] and in data set [7] was “Not Active” in each case.
Consider `CCOP(=O)(N/N=C/c1cccc[n+]1[O-])OCC`, for which the T/C in the data set on P388 [4] came out at 78%; in the data set with P388 [1], 108%; with Ehrlich [8], 98%; in the data set with Ehrlich [10], 160%. The Activity result in [6], in data set [7] and in data set [15] was “Not Active” in each case.
Compound `[O-][n+]1ccccc1` registered a lipophilicity (logP) in data set [9] of -1.69.
In data set [9], `O=P1(N(CCCl)CCCl)NCCCO1` (centres undefined) [CYCLOPHOSPHAMIDE ANHYDROUS] gave a logP of 0.63.
In the case of `O.O=P(O)(N/N=C/c1cccc[n+]1[O-])Oc1ccccc1`, the T/C with Sarcoma-180 [3] was determined as 107%; in the data set with Sarcoma-180 [5], 87%; with Ehrlich [8], 164%; with Ehrlich [10], 118%. For the same compound, the Activity result is recorded as “Not Active” in [6], “Active” in data set [7] and “Active” in data set [14]. This compound gave a logP in [9] of -0.76.
Consider `S=P(N/N=C/c1ccccn1)(N/N=C/c1ccccn1)c1ccccc1`, for which the T/C in the data set with Sarcoma-180 [3] is on record as 81%; in the data set on Sarcoma-180 [12], 87%; with P388 [1], 108%; in the data set on P388 [2], 95%; in the data set on Ehrlich [10], 190%; in the data set with Ehrlich [13], 150%.
With `S=P(N/N=C/c1ccccn1)(N/N=C/c1ccccn1)Oc1ccccc1`, the T/C with Sarcoma-180 [3] is on record as 93%; in the data set on P388 [4], 97%; in the data set with P388 [1], 87%; in the data set with Sarcoma-180 [5], 141%; in the data set on Ehrlich [8], 269%; with Ehrlich [10], 114%. Moreover, the lipophilicity (logP) in data set [9] was determined as 1.62.
For the compound `CCOP(=S)(N/N=C/c1cccc[n+]1[O-])OCC`, the T/C came out at 96% with Sarcoma-180 [3]; 73% with P388 [4]; 111% with P388 [1]; 126% with Sarcoma-180 [5]; 135% in the data set with Ehrlich [8]; 108% in the data set with Ehrlich [10]. Further, the Activity entry in data set [6] and in [7] was “Not Active” throughout.

Source of the values: ChEMBL document CHEMBL3272203, “Phosphorus-nitrogen compounds. 22. Synthesis and antitumor activity of arylsulfonylhydrazone analogues” (J Med Chem, 1978).
